Test results taken from article PMC6934184, “Selective DNA-PKcs inhibition extends the therapeutic index of localized radiotherapy and chemotherapy” (The Journal of Clinical Investigation, 2019).

Target: T1, HIPK4 (Homo sapiens, UniProt Q8NE63)
T1 construct: purchased Thermo Fisher Scientific (Life Technologies) SelectScreen
Assay: SelectScreen Z'LYTE
Format: biochemical
In short: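 NU5455 was profiled across the SelectScreen Broad panel of kinase activity and binding assays. Z'LYTE reactions such as CSF1R ran at apparent Km ATP, while the Adapta CAMK1 assay used ATP listed as 10. Values are given as percent.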

T1 sequence (Q8NE63 whole entry): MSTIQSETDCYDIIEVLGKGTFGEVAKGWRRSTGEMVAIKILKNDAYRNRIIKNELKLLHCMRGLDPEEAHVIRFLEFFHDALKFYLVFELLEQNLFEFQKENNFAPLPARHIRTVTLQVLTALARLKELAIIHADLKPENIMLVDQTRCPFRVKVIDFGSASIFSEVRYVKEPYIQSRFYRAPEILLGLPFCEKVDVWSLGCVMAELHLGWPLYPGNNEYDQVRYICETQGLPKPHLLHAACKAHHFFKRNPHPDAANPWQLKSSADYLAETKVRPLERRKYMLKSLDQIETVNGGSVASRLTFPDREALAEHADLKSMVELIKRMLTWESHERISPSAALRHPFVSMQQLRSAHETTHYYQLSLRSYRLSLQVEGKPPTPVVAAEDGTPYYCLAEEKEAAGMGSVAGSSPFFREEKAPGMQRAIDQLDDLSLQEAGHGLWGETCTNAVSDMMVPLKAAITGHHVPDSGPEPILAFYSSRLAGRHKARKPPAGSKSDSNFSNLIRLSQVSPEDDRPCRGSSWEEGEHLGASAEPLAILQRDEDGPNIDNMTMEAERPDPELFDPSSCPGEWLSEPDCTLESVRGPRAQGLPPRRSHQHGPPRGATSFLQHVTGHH

CN(C(=O)CN1CCOCC1)c1ccc2sc3c(-c4cccc5c(=O)cc(N6CC7CCC(C6)O7)oc45)cccc3c2c1 [NU5455]
inhibition at 1 µM: 0.9%
